SMILES strings stand for the structures.

Broadly, the IC50 is the concentration that gives 50% inhibition.

T1 sequence (Q92794 488-778): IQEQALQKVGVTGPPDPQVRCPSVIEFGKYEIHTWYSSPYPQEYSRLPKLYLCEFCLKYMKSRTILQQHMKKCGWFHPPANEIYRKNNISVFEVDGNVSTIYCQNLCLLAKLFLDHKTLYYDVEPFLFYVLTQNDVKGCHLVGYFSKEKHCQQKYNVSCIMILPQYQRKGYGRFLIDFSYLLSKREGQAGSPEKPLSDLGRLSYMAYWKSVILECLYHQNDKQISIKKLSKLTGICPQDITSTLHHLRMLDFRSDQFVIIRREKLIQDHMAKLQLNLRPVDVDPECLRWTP

The first assay has as its target T1, Recombinant KAT6A/MOZ (488-778) protein (Homo sapiens, UniProt Q92794).
T1 construct: Recombinant KAT6A/MOZ (488-778) protein (Active motif, Catalog #81223); purchased Active Motif 81223
As to the kind of experiment: Kat6a AlphaLISA Inhibition Screening Assay. Type of assay: biochemical. The settings on record: 10′ pre-incubation; Table 2; read-out: Kat6A biochemical assay: IC50. The procedure:
The Kat6a inhibitory activity of test compounds was determined using an Alpha Screen-based detection method. The assay reactions were conducted in a volume of 10 μL in Alpha Plate, White 384 well plate (cat #6008280, Perkin Elmer). The enzymatic reactions were performed in assay buffer pH 8.0 (50 mM Tris-HCl, 0.1 mM EDTA, 0.01% Tween-20, 1 mM Dithiothreitol, 0.1% BSA (fatty acid free) and 330 nM TSA (Trichostatin A)). 10 μL reaction volume consisting of 25 nM of Recombinant KAT6A/MOZ (488-778) protein (Active motif, Catalog #81223), 400 nM Acetyl coenzyme A (Catalog #A2056, Sigma), 200 nM of Histone H3 peptide [(amino acids 1-21), biotin-labeled (BPS Biosciences, Catalog #52011,)] and a 10-point dose response curve for test/tool compounds were prepared. Enzyme and compounds solution were pre-incubated in assay plate for 60 or 10 min at room temperature then substrate and Acetyl coenzyme A solution were added to the plate. After addition, the plate was sealed with adhesive seals and incubated for 120 minutes at room temperature.
After 120 minutes of incubation, 5 μL (10 μg/mL) of AlphaLISA anti-acetyl-Lysine acceptor beads (Perkin Elmer, Catalog #AL143C) were added to the plate and it was incubated for 60 minutes at room temperature. Then 10 μL (10 μg/mL) of Alpha Streptavidin donor beads (Perkin Elmer, Catalog #6760002S) were added to the plate which was further incubated for 60 minutes at room temperature. After incubation, the alpha signal was recorded by using Perkin Elmer Envision multi-mode reader.
NA means the compound was not active at the concentration tested. […] NT means not tested.
For orientation: Alpha assays give light when donor and acceptor beads are brought close together.
`C=CC(=O)NCc1ccnc(-c2cc(C)cc(C(=O)NNS(=O)(=O)c3ccccc3F)c2)c1` [compound 12]: the IC50 was not above 10 µM.

On to `C#CC(=O)NCc1ccnc(-c2cc(C)cc(C(=O)NNS(=O)(=O)c3ccccc3F)c2)c1` [compound 13], for which the IC50 was not above 10 µM.

The same assay, now with this note: 60′ pre-incubation; Table 2; read-out: Kat6A biochemical assay: IC50.
On to `C#CC(=O)NCc1cnn(Cc2cc(OC)c3c(NS(=O)(=O)c4ccccc4C(=O)NC)noc3c2)c1` [compound 68, 2-(N-(4-methoxy-6-((4-(propiolamidomethyl)-1H-pyrazol-1-yl)methyl)benzo[d]isoxazol-3-yl)sulfamoyl)-N-methylbenzamide], for which the IC50 was not above 10 µM.

`C#CC(=O)NCc1cnn(Cc2cc(OC)c3c(NS(=O)(=O)c4cc(CC)ccc4OC)noc3c2)c1` [compound 69, N-((1-((3-((5-ethyl-2-methoxyphenyl)sulfonamido)-4-methoxybenzo[d]isoxazol-6-yl)methyl)-1H-pyrazol-4-yl)methyl) propiolamide]: the IC50 was not above 10 µM.

With `COc1ccccc1S(=O)(=O)Nc1noc2cc(Cn3cc(CNS(=O)(=O)c4c(F)c(F)c(F)c(F)c4F)cn3)cc(OC)c12` [compound 70, 2,3,4,5,6-pentafluoro-N-((1-((4-methoxy-3-((2-methoxyphenyl)sulfonamido)benzo[d]isoxazol-6-yl)methyl)-1H-pyrazol-4-yl)methyl)benzenesulfonamide], the IC50 was not above 10 µM.

Regarding `C#CC(=O)N1CCN(c2cccc(-c3cc(OC)c4c(NS(=O)(=O)c5c(OC)cccc5OC)noc4c3)c2)CC1` [compound 71, 2,6-dimethoxy-N-(4-methoxy-6-(3-(4-propioloylpiperazin-1-yl)phenyl)benzo[d]isoxazol-3-yl) benzenesulfonamide], the half-maximal inhibitory concentration (IC50) was not above 10 µM.

Staying with this assay, now noted: 60′ pre-incubation; Table 3; read-out: Kat6A Biochemical assay: IC50.
In the case of `C=CS(=O)(=O)N1CCN(c2cccc(-c3cc(OC)c4c(NS(=O)(=O)c5c(OC)cccc5OC)noc4c3)c2)CC1` [compound 72, 2,6-dimethoxy-N-(4-methoxy-6-(3-(4-(vinylsulfonyl)piperazin-1-yl)phenyl)benzo[d]isoxazol-3-yl) benzenesulfonamide], the IC50 was not above 10 µM.

On to `COc1cccc(OC)c1S(=O)(=O)Nc1noc2cc(-c3cccc(N4CCN(C(=O)CCl)CC4)c3)cc(OC)c12` [compound 73, N-(6-(3-(4-(2-chloroacetyl)piperazin-1-yl)phenyl)-4-methoxybenzo[d]isoxazol-3-yl)-2,6-dimethoxybenzenesulfonamide], for which the IC50 was not above 10 µM.

With `C#CC(=O)N1CCN(c2cccc(-c3cc(OC)c4c(NS(=O)(=O)c5ccccc5OC)noc4c3)c2)CC1` [compound 74, 2-methoxy-N-(4-methoxy-6-(3-(4-propioloylpiperazin-1-yl)phenyl)benzo[d]isoxazol-3-yl)benzenesulfonamide], the IC50 was not above 10 µM.

For `C=CC(=O)N1CCC(c2ccccc2-c2cc(OC)c3c(NS(=O)(=O)c4c(OC)cccc4OC)noc3c2)C1` (stereo not drawn) [compound 75, N-(6-(2-(1-acryloylpyrrolidin-3-yl)phenyl)-4-methoxybenzo[d]isoxazol-3-yl)-2,6-dimethoxybenzenesulfonamide], the IC50 is more than 10 µM.

Turning to `C#CC(=O)NCc1cnn(Cc2cc(OC)c3c(NS(=O)(=O)c4ccccc4OC)n[nH]c3c2)c1` [compound 76, N-((1-((4-methoxy-3-((2-methoxyphenyl)sulfonamido)-1H-indazol-6-yl)methyl)-1H-pyrazol-4-yl)methyl)propiolamide], the IC50 was not above 10 µM.

Take `C=CS(=O)(=O)NC1CCN(Cc2cc(OC)c3c(NS(=O)(=O)c4ccccc4OC)noc3c2)CC1` [compound 77, 2-methoxy-N-(4-methoxy-6-((4-(vinylsulfonamido)piperidin-1-yl)methyl)benzo[d]isoxazol-3-yl)benzenesulfonamide]: the 50% inhibitory concentration (IC50) is not above 10 µM.

With `COc1ccccc1S(=O)(=O)Nc1noc2cc(Cn3cc(CNS(=O)(=O)c4ccc(F)cc4)cn3)cc(OC)c12` [compound 78, N-(6-((4-(((4-fluorophenyl)sulfonamido)methyl)-1H-pyrazol-1-yl)methyl)-4-methoxybenzo[d]isoxazol-3-yl)-2-methoxybenzenesulfonamide], the IC50 is not above 10 µM.

In the case of `COc1ccccc1S(=O)(=O)Nc1noc2cc(Cn3cc(CNS(=O)(=O)c4ccccc4)cn3)cc(OC)c12` [compound 79, 2-methoxy-N-(4-methoxy-6-((4-(phenylsulfonamidomethyl)-1H-pyrazol-1-yl)methyl)benzo[d]isoxazol-3-yl)benzenesulfonamide], the IC50 is not above 10 µM.

`COc1ccccc1S(=O)(=O)Nc1noc2cc(Cn3cc(CNS(=O)(=O)c4cc(F)c(F)c(F)c4)cn3)cc(OC)c12` [compound 80, 3,4,5-trifluoro-N-((1-((4-methoxy-3-((2-methoxyphenyl)sulfonamido)benzo[d]isozolol-6-yl)methyl)-1H-pyrazol-4-yl)methyl) benzenesulfonamide]: the IC50 was not above 10 µM.

As to `C=CS(=O)(=O)NCc1cnn(Cc2cc(OC)c3c(NS(=O)(=O)c4cc(CC)ccc4OC)noc3c2)c1` [compound 81, 5-ethyl-2-methoxy-N-(4-methoxy-6-((4-(vinylsulfonamidomethyl)-1H-pyrazol-1-yl)methyl)benzo[d]isoxazol-3-yl)benzenesulfonamide], the IC50 is not above 10 µM.

Consider `COc1ccccc1S(=O)(=O)Nc1noc2cc(Cn3ncc4c3CN(S(=O)(=O)c3c(F)c(F)c(F)c(F)c3F)C4)cc(OC)c12` [compound 82], for which the IC50 was not above 10 µM.

For the compound `COc1ccccc1S(=O)(=O)Nc1noc2cc(Cn3cc(CNS(=O)(=O)c4ccc(Cl)nc4)cn3)cc(OC)c12` [compound 83, 6-chloro-N-((1-((4-methoxy-3-((2-methoxyphenyl)sulfonamido)benzo[d]isoxazol-6-yl)methyl)-1H-pyrazol-4-yl)methyl)pyridine-3-sulfonamide], the IC50 is not above 10 µM.

Consider `COc1ccccc1S(=O)(=O)Nc1noc2cc(Cn3cc(CNS(=O)(=O)c4cccnc4Cl)cn3)cc(OC)c12` [compound 84, 2-chloro-N-((1((4methoxy3((2methoxyphenyl)sulfonamido)benzo[d]isoxazol-6-yl)methyl)-1H-pyrazol-4-yl)methyl) pyridine-3-sulfonamide], for which the IC50 was not above 10 µM.

In the case of `C#CC(=O)NCc1cnn(Cc2cc(OC)c3c(NS(=O)(=O)c4cc(C(=O)NC)ccc4OC)noc3c2)c1` [compound 85, 4-methoxy-3-(N-(4-methoxy-6-((4-(propiolamidomethyl)-1H-pyrazol-1-yl)methyl)benzo[d]isoxazol-3-yl)sulfamoyl)-N-methylbenzamide], the IC50 was not above 10 µM.

With `C#CC(=O)NCc1cnn(Cc2cc(OC)c3c(NS(=O)(=O)c4cc(C(=O)O)ccc4OC)noc3c2)c1` [compound 86, 4-methoxy-3-(N-(4-methoxy-6-((4-(propiolamidomethyl)-1H-pyrazol-1-yl)methyl)benzo[d]isoxazol-3-yl)sulfamoyl)benzoic acid], the IC50 was more than 10 µM.

With `C#CC(=O)N1CCC(c2cccc(-c3cc(OC)c4c(NS(=O)(=O)c5c(OC)cccc5OC)noc4c3)c2)C1` (stereo not drawn) [compound 87, 2,6-dimethoxy-N-(4-methoxy-6-(3-(1-propioloylpyrrolidin-3-yl)phenyl)benzo[d]isoxazol-3-yl)benzenesulfonamide], the half-inhibitory concentration (IC50) was not above 10 µM.

As for `C#CC(=O)NCCOCc1cc(OC)c2c(NS(=O)(=O)c3cc(CC)ccc3OC)noc2c1` [compound 88, N-(2-((3-((5-ethyl-2-methoxyphenyl)sulfonamido)-4-methoxybenzo[d]isoxazol-6-yl)methoxy)ethyl)propiolamide], the IC50 was not above 10 µM.

In the case of `C#CC(=O)NCCCOCc1cc(OC)c2c(NS(=O)(=O)c3cc(CC)ccc3OC)noc2c1` [compound 89, N-(3-((3-((5-ethyl-2-methoxyphenyl)sulfonamido)-4-methoxybenzo[d]isoxazol-6-yl)methoxy)propyl) propiolamide], the IC50 was not above 10 µM.

For the compound `C=CS(=O)(=O)NCCCOCc1cc(OC)c2c(NS(=O)(=O)c3cc(CC)ccc3OC)noc2c1` [compound 90, 5-ethyl-2-methoxy-N-(4-methoxy-6-((3-(vinylsulfonamido)propoxy)methyl)benzo[d]isoxazol-3-yl)benzenesulfonamide], the IC50 was not above 10 µM.

`C#CC(=O)NCc1cnn(-c2cc(C)nc(C(=O)NNS(=O)(=O)c3ccccc3F)c2)c1` [compound 91, N-((1-(2-(2-((2-fluorophenyl)sulfonyl) hydrazine-1-carbonyl)-6-methylpyridin-4-yl)-1H-pyrazol-4-yl)methyl) propiolamide]: the IC50 is not above 10 µM.

With `C#CC(=O)N1CCC(c2ccnc(-c3cc(C)cc(C(=O)NNS(=O)(=O)c4ccccc4F)c3)c2)C1` (stereo not drawn) [compound 92, 2-fluoro-N′-(3-methyl-5-(4-(1-propioloylpyrrolidin-3-yl)pyridin-2-yl)benzoyl)benzenesulfonohydrazide], the IC50 was not above 10 µM.
